Measurements as given in US8226965B2, “Methods of treating fungal, yeast and mold infections” (priority 2008, dated 2012).

Tests used:
[1] = system: T. rubrum mycelia and microconidia; assay: Time-kill experiments; type: cell-based, Trichophyton rubrum; conditions: for reduction in colony counts: 16×MIC, up to 24 hours, hyphae or microconidia in water (nongrowth)
Description: Time-kill experiments. […] Part of the conidial suspension was pelleted and resuspended in RPMI 1640 medium and grown for 16-18 hours overnight at room temperature to allow germination of microconidia. After germination, the hyphae were collected by centrifugation and resuspended in distilled water. […] Colony-forming units were counted after four days of incubation at 35° C.

[2] = system: Trichophyton rubrum, Trichophyton mentagrophytes and Epidermophyton floccosum; assay: Spontaneous resistance development, overall; type: cell-based
Description: Phenotypically resistant isolates were tested for MICs and compared to parental MICs.

[3] = cited from earlier work

## Cc1cc(C2CCCCC2)n(O)c(=O)c1 [Ciclopirox]
[1]
  reduction in colony counts: None of the other compounds significantly reduced colony counts
[1]; FIG. 10
  activity on nongrowing mycelia and conidia: no activity against the conidial form
[2]
  stable resistance of recovered isolates: none of the isolates were stably resistant

## CN(C/C=C/C#CC(C)(C)C)Cc1cccc2ccccc12.Cl [Terbinafine hydrochloride]
[3]
  solubility in dichloromethane: freely soluble
  solubility in methanol: freely soluble

## CN(C/C=C/C#CC(C)(C)C)Cc1cccc2ccccc12 [Terbinafine]
[1]
  reduction in colony counts: None of the other compounds significantly reduced colony counts
[2]
  stable resistance of recovered isolates: none of the isolates were stably resistant
